# Assay results from US6569229B1, “Low-freezing point formulation containing phenol derivatives” (Omya AG, priority 1998, dated 2003).
# Assays:
# [1] = pH of the preserved slurry or coolant; type: physicochemical
# [2] = Brookfield viscosity of the preserved pigment slurry; type: physicochemical
# Method: Measurement of the viscosity was performed on a Brookfield viscosimeter type PVF-100 at 100 rpm. The following spindles were used for the individual measurements:
# The measurement was carried out in a low 400 ml beaker.
# The temperature during the measurement was 20° C. The measurement was performed after 1 min of stirring.
# Prior to the actual measurements, all samples were stirred intensively for 2 min (5000 rpm, stirring disc diameter 50 mm).
# This type of viscosity measurement was used in all of the following examples.
# [3] = cited from earlier work
# [4] = Solubility / miscibility in water and attainable concentration; type: physicochemical; conditions: NaOH as neutralizing agent, room temperature; higher concentrations impossible or recrystallized during storage
# aerobic mesophilic germs = test: Germ count (determination of aerobic mesophilic germs) in preserved slurry or coolant; type: cell-based, pseudomonads (predominantly Pesudomonas aeruginosa)
# Method: The germ count was determined according to the method “Determination of aerobic mesophilic germs”, Schweizerisches Lebensmittelbuch, chapter 56, paragraph 7.01, 1985 edition, revised version 1988. Mostly, the bacterial strains detected were from the family of pseudomonads (predominantly Pesudomonas aeruginosa).
structure (smiles),measurement,setting,value
Oc1ccccc1-c1ccccc1 [o-phenylphenol],pH of coolant,"[1]; 5% oil in water coolant emulsion, 2 kg actives/t, added as 50% solution (Example 13), blank 6.9",7.0
same,pH of slurry,"[1]; calcium carbonate slurry 77.8% solids, 250 g actives/t, added according to example 8, 47.5% solution (Example 11), blank 9.6",9.5
same,pH of slurry,"[1]; calcium carbonate slurry 77.8% solids, 250 g actives/t, added as solution of example 2 (Example 4, prior art), blank 9.6",10.2
same,pH of slurry,"[1]; kaolin slurry 72.8% solids, 300 g actives/t, added as solution of example 1 (Example 3, prior art), blank 7.4",8.1
same,pH of slurry,"[1]; kaolin slurry 72.8% solids, 300 g actives/t, added as solution of example 7 (Example 10), blank 7.4",7.4
same,pH of slurry,"[1]; talc slurry 64.2% solids, 350 g actives/t, added as 30% solution of example 9 (Example 12), blank 10.1",10.2
same,"Brookfield viscosity spindle 3, 100 rpm after preparation","[2]; calcium carbonate slurry 77.8% solids, 250 g actives/t, added according to example 8, 47.5% solution (Example 11), blank 340",350 mPas
same,"Brookfield viscosity spindle 3, 100 rpm after 1 week","[2]; calcium carbonate slurry 77.8% solids, 250 g actives/t, added according to example 8, 47.5% solution (Example 11), blank 350",380 mPas
same,"Brookfield viscosity spindle 3, 100 rpm after preparation","[2]; calcium carbonate slurry 77.8% solids, 250 g actives/t, added as solution of example 2 (Example 4), blank 340",320 mPas
same,"Brookfield viscosity spindle 3, 100 rpm after 1 week","[2]; calcium carbonate slurry 77.8% solids, 250 g actives/t, added as solution of example 2 (Example 4), blank 350",460 mPas
same,"Brookfield viscosity spindle 3, 100 rpm after preparation","[2]; kaolin slurry 72.8% solids, 300 g actives/t, added as solution of example 1 (Example 3), blank 240",310 mPas
same,"Brookfield viscosity spindle 3, 100 rpm after 1 week","[2]; kaolin slurry 72.8% solids, 300 g actives/t, added as solution of example 1 (Example 3), blank 330",760 mPas
same,"Brookfield viscosity spindle 3, 100 rpm after preparation","[2]; kaolin slurry 72.8% solids, 300 g actives/t, added as solution of example 7 (Example 10), blank 240",250 mPas
same,"Brookfield viscosity spindle 3, 100 rpm after 1 week","[2]; kaolin slurry 72.8% solids, 300 g actives/t, added as solution of example 7 (Example 10), blank 330",350 mPas
same,"Brookfield viscosity spindle 3, 100 rpm after preparation","[2]; talc slurry 64.2% solids, 350 g actives/t, added as 30% solution of example 9 (Example 12), blank 320",320 mPas
same,"Brookfield viscosity spindle 3, 100 rpm after 1 week","[2]; talc slurry 64.2% solids, 350 g actives/t, added as 30% solution of example 9 (Example 12), blank 480",540 mPas
same,solubility in water,[3],almost insoluble in water
same,water miscibility,[3]; o-phenylphenol in monopropylene glycol,not water miscible
same,attainable concentration of o-phenylphenol solution,[4],≤ 20 % by wt.
same,germ count after 24 hrs,"aerobic mesophilic germs; 5% oil in water coolant emulsion, 2 kg actives/t, added as 50% solution (Example 13), blank 10^7/g",< 100 g⁻¹
same,germ count after 24 hrs,"aerobic mesophilic germs; calcium carbonate slurry, 250 g actives/t, added according to example 8, 47.5% solution (Example 11), blank 10^6/g",< 100 g⁻¹
same,germ count after 24 hrs,"aerobic mesophilic germs; calcium carbonate slurry, 250 g actives/t, added as solution of example 2 (Example 4), blank 10^5/g",< 100 g⁻¹
same,germ count after 24 hrs,"aerobic mesophilic germs; kaolin slurry, 300 g actives/t, added as solution of example 1 (Example 3), blank 10^5/g",< 100 g⁻¹
same,germ count after 24 hrs,"aerobic mesophilic germs; kaolin slurry, 300 g actives/t, added as solution of example 7 (Example 10), blank 10^5/g",< 100 g⁻¹
same,germ count after 24 hrs,"aerobic mesophilic germs; talc slurry, 350 g actives/t, added as 30% solution of example 9 (Example 12), blank 10^5/g",< 100 g⁻¹
